Where two headings read alike, the source gives them in different places.
Experiments:
[1] = Adverse or side effects observed over all trials; format: in vivo, fish; settings: injection, bath solution or oral treatment; all dosages examined
Description: This is in regard to all the dosages that have been examined and the various administration methods which have been used.

[2] = tested on: sea lice; assay: Oral or bath treatment in freshwater before sea transfer, sea lice counts after natural infection (Example 5); format: in vivo, sea trout (Salmo trutta); settings: oral 4 mg per kg daily for 5 days or bath 5 ppm for 30 minutes
Description: The treatment dosage was 9 mg hexaflumuron per kg fish per day for 10 days. This is indicated by "Groups/Timepoints" in the figure; • Figure 2 relates to the trial in Example 2 that was carried out on Atlantic salmon (Salmo salar). […] The treatment dosage varied between 3 - 9 mg hexaflumuron and 9- 12 mg fluazuron per kg fish per day for 7 days. This is indicated by "Groups/Timepoints" in the diagram. […] The treated groups are compared to an untreated control group. The treatment dosage was 4 mg hexaflumuron per kg fish per day for 5 days. This is indicated by "Groups/Timepoints" in the figure. Cage 2 = controls, Cage 4-6 = treated groups, 16.6.97 = time point for sea transfer and 5.8.97= controls treated by bathing with deltamethrin; • Figure 4 relates to the trial described in Example 5, which was carried out on sea trout (Salmo trutta). […] The treated groups are compared with an untreated control group. The dosage for oral treatment was 4 mg hexaflumuron per kilo fish per day for 5 days, and 5 ppm hexaflumuron as a 30 minute bath treatment. This is indicated by "Groups/Timepoints" in the figure. Cage 1.4 = Controls, cage 1.3 = Oral treatment, cage 1.2 = Bath treatment. […] The treated groups are compared with an untreated control group, and one group that has been treated orally with teflubenzuron (10 mg/kg of teflubenzuron per kg fish per day for 7 days). The dosage for oral treatment was 5.6 mg hexaflumuron per kg fish per day for 7 days, and 5 ppm hexaflumuron as a 30 minute bath treatment. […] End of treatment: 22.10.97, Sea transfer: 23.10.97. T1 = 3 weeks post end of treatment, T2 = 5 weeks post end of treatment, T3 = 9 weeks post end of treatment, T4 = 12 weeks post end of treatment; • Figure 6 relates to the trial in Example 6 at time points 4-6, with the same trial parameters as for Figure 5. […]
About 300 sea trout (Salmo trutta) of an average weight of 160 grams were divided into three groups of 100 fish each. […] Lice from 6-10 fish from each cage were counted every third week to assess whether there was any difference in the number of lice between the cages. […]

[3] = Field trial: weight and length of recaptured tagged fish (Example 3); format: in vivo, wild sea trout (Salmo trutta); settings: treated fish caught June 20 to August 7
Description: About 2,000 wild sea trout (Salmo trutta) were divided into two groups and marked with Carlin tags in two different colours (yellow or red) so that individuals of the groups could easily be distinguished from each other when observed in the water. The group with yellow Carlin tags were given feed containing hexaflumuron. The dose was about 3 mg of hexaflumuron per fish per day for six days. The feeding was done the last week before they were transferred to the sea in the beginning of May. The control group had red Carlin tags and was fed ordinary fish feed until sea transfer. Both groups of fish were transferred to the sea 200 metres from the river mouth of the Bondhus River in Hordaland in Norway. From sea transfer (May 8) until August 7, neighbouring rivers and estuaries round these rivers were examined every week, using fishing by application of high voltage and net fishing.
The following average lengths and weights were recorded for the fish that were caught during the period: • Control fish: Average weight 50.4 ± 48.8 grams. Average length 19.7 ± 13.3 cm. • Treated fish: Average weight 87.1 ± 69.6 grams. Average length 35.9 ± 19.1 cm.

[4] = Chemical analysis of muscle with skin after injection (Example 7); format: in vivo, salmon (Salmo salar); settings: fish, 50 mg/kg; for concentration at 8280 h: T11, 345 days after injection, read-out: muscle/skin concentration of hexaflumuron
Description: Tissue samples (muscle with skin) for chemical analysis were collected from three fish at each sample point in time throughout the entire trial period in order to monitor the concentrations of hexaflumuron. At sea water transfer, the muscle/skin concentrations were between 2 and 3 µg hexaflumuron per g of tissue. […] At T8, i.e. 238 days after vaccination, the concentration of hexaflumuron varied between 0.49 and 0.53 µg per g of tissue. At T11, i.e. 345 days after injection (322 days after sea water transfer) the muscle/skin concentration of hexaflumuron in the two groups was 0.13 and 0.11 µg/g tissue, respectively. At the same point in time, different stages of sea lice had become established on these fish.

O=C(NC(=O)c1c(F)cccc1F)Nc1cc(Cl)c(OC(F)(F)C(F)F)c(Cl)c1 [hexaflumuron]
adverse or side effects [1]: No adverse or side effects have been observed
protection after transfer to sea [2]: at least 8 weeks
number of lice larger than Chalimus II versus control ([2]; 2, 5 and 8 weeks after sea transfer): significantly lower
Average length ([3]; control fish 19.7 ± 13.3): 35.9 ± 19.1 cm
Average weight ([3]; control fish 50.4 ± 48.8): 87.1 ± 69.6 grams
concentration at 5712 h ([4]; T8, 238 days after vaccination, read-out: concentration of hexaflumuron in muscle/skin): 490 to 530 ng/g
concentration at 8280 h ([4]; first-named group): 130 ng/g
concentration at 8280 h ([4]; second-named group): 110 ng/g
concentration at 552 h ([4]; at sea water transfer (23 days after injection of about 50 mg/kg), read-out: muscle/skin concentrations): 2000 to 3000 ng/g

Source: patent EP1306084A1, “Compositions for the control of parasitic infestations in fish” (Alpharma AS, priority 1998, dated 1999)
